Data on 19 compounds can be found in patent US20030124636A1, “Individualization of therapy with antiarrhythmics” (McGill University, priority 2001, published 2003).

Like-named read-outs stand apart in the source and are kept apart here. Marks after values point to notes of the source that are not given here.

Series [1] deals with AAMU-Ab. The series is described as follows: Competitive antigen ELISA, cross-reactivity of AAMU-Ab. It is filed as binding, rabbit. The conditions noted are these: 0 = absence of inhibition or inhibition no higher than 40% at highest concentration tested (5 × 10^−3 M). On the procedure: (§1) Buffers and water without additives are filtered through millipore filters and kept for 1 week. BSA, antibodies, Tween™ 20 and horse radish peroxidase conjugates are added to these buffers and water just prior to use. Urine samples are usually collected 4 hours after drinking a cup of coffee (instant or brewed with approximately 100 mg of caffeine per cup) and stored at −80° C. The urine samples are diluted 10 times with sodium phosphate buffer (620 mosm, pH 7.50) and are subsequently diluted with water to give concentrations of AAMU and 1X no higher than 3×10^−6 M in the ELISA. All the pipettings are done with an eight-channel pipette, except those of the antibody and sample solutions. Starting with the last well, 100 μL of a carbonate buffer (100 mM, pH 9.6) containing 2.5 μg mL^−1 antibodies are added to each well. After 90 min. at room temperature, the wells are washed three times with […] of TPB: isotonic sodium phosphate buffer (310 mosm, pH 7.50) containing 0.05% Tween™ 20.
(§2) After the initial wash, unoccupied sites are blocked by incubation for 90 min. at room temperature with 100 μL TBP containing 3% BSA. The wells are washed four times with 100 μL TPB. […] The microplate is gently shaken with an orbital shaker at room temperature for 3-4 hours. The wells are washed three times with 100 μL TPB containing 1% BSA and three times with water containing 0.05% Tween™20. To the washed plate is added 150 μL of a substrate buffer composed of citric acid (25 mM) and sodium phosphate dibasic buffer (50 mM, pH 5.0) containing 0.06% hydrogen peroxide and 0.04% o-phenylenediamine hydrochloride.
(§3) Buffers and water without additives were filtered through millipore filters and kept for 1 week. BSA, antibodies, Tween™20 and horse radish peroxidase conjugates were added to these buffers and water just prior to use. Urine samples were usually collected 4 hours after drinking a cup of coffee (instant or brewed with approximately 100 mg of caffeine per cup) and stored at −80° C. They were diluted 10 times with sodium phosphate buffer (620 mosm, pH 7.50) and were subsequently diluted with water to give concentrations of AAMU and 1X no higher than 3×10^−6 M in the ELISA. All the pipettings were done with an eight-channel pipette, except those of the antibody and sample solutions. Starting with the last well, 100 μL of a carbonate buffer (100 mM, pH 9.6) containing 2.5 μg mL^−1 antibodies was pipetted. After 90 min. at room temperature, the wells were washed three times with 100 μL of TPB: isotonic sodium phosphate buffer (310 mosm, pH 7.50) containing 0.05% Tween™ 20.
(§4) After the initial wash, unoccupied sites were blocked by incubation for 90 min. at room temperature with 100 μL TBP containing 3% BSA. The wells were washed four times with 100 μL TPB. […] The microplate was gently shaken with an orbital shaker at room temperature for 3-4 hours. The wells were washed three times with 100 μL with TPB containing 1% BSA and three times with water containing 0.05% Tween™ 20. To the washed plate was added 150 μL of a substrate buffer composed of citric acid (25 mM) and sodium phosphate dibasic buffer (50 mM, pH 5.0) containing 0.06% hydrogen peroxide and 0.04% o-phenylenediamine hydrochloride. After 20 min. at room temperature with shaking, the reaction was stopped with 50 μL of 2.5 N HCl.
(§5) The cross reactivities of AAMU-Ab and 1X-Ab were tested using a wide variety of caffeine metabolites and structural analogs (Table 2 below).
A general note: ELISA stands for enzyme-linked immunosorbent assay.

Series [2] deals with 1X-Ab. Briefly: Competitive antigen ELISA, cross-reactivity of 1X-Ab. The series is classed as binding, rabbit. The following applies: 0 = absence of inhibition or inhibition no higher than 40% at highest concentration tested (5 × 10^−3 M). On the procedure: as §1, §2, §3, §4, §5
The conditions of series [3]: cited from earlier work.

As for `CC(=O)Nc1c(N)n(C)c(=O)n(C)c1=O` [5-Acetamino-6-amino-1,3-dimethyluracil], in series [1], the “% Cross-Reaction AAMU-Ab” value is on record as 0%. Moreover, in series [2], the “% Cross-Reaction 1X-Ab” value came out at 0%.
`Cn1c(=O)[nH]c(=O)c2[nH]cnc21` [3-Methyl Xanthine]: the “% Cross-Reaction AAMU-Ab” value in series [1] was 0%. Moreover, the “% Cross-Reaction 1X-Ab” value in series [2] was found to be 0%.
With `Cn1c(=O)c2[nH]cnc2n(C)c1=O` [1,3-Dimethyl Xanthine (Theophylline), 1,3-Dimethyl Xanthine], the “% Cross-Reaction AAMU-Ab” value in series [1] worked out at 0%. The “% Cross-Reaction 1X-Ab” value in series [2] is recorded as 0.2%.
Consider `Nc1nc2nc[nH]c2c(=O)[nH]1` [Guanine], for which, in series [1], the “% Cross-Reaction AAMU-Ab” value was 0%. Further, the “% Cross-Reaction 1X-Ab” value in series [2] is 0%.
For `O=c1[nH]c(=O)c2[nH]cnc2[nH]1` [Xanthine], in series [1], the “% Cross-Reaction AAMU-Ab” value is listed as 0^a %. Also, the “% Cross-Reaction 1X-Ab” value in series [2] is 0%.
The matching figures for `Cn1cnc2[nH]c(=O)[nH]c(=O)c21` [7-Methyl Xanthine]: 0% and 0%.
In the same order, the values of `Cn1c(=O)c2c(ncn2C)n(C)c1=O` [1,3,7-Trimethyl Xanthine (Caffeine), 1,3,7-Trimethyl Xanthine] are 0% and 0%.
The matching figures for `O=c1[nH]cnc2nc[nH]c12` [Hypoxanthine]: 0% and 0%.
`O=c1[nH]c(=O)c2[nH]c(=O)[nH]c2[nH]1` [Uric acid]: the “% Cross-Reaction AAMU-Ab” value in series [1] is 0%. Also, the “% Cross-Reaction 1X-Ab” value in series [2] is 0%.
Turning to `Cc1nc2[nH]c(=O)[nH]c(=O)c2[nH]1` [8-Methyl Xanthine], in series [1], the “% Cross-Reaction AAMU-Ab” value is listed as 0%. Moreover, the “% Cross-Reaction 1X-Ab” value in series [2] came to 0%.
For the compound `Cn1c(=O)[nH]c2[nH]c(=O)[nH]c2c1=O` [1-Methyluric acid], the “% Cross-Reaction AAMU-Ab” value in series [1] was found to be 0%. In addition, the “% Cross-Reaction 1X-Ab” value in series [2] is 11%.
As for `Cn1c(=O)[nH]c2[nH]c(=O)n(C)c2c1=O` [1,7-Dimethyluric acid], in series [1], the “% Cross-Reaction AAMU-Ab” value is reported as 0%. For the same compound, the “% Cross-Reaction 1X-Ab” value in series [2] worked out at 0%.
Turning to `CC(=O)Nc1c(N)[nH]c(=O)[nH]c1=O` [5-Acetamino-6-amino-uracil], the “% Cross-Reaction AAMU-Ab” value in series [1] came to 0.6%. Moreover, the “% Cross-Reaction 1X-Ab” value in series [2] was 0%.
`Nc1ccc(S(=O)(=O)c2ccc(N)cc2)cc1` [dapsone]: the “adverse reactions to dapsone” value in series [3] (fast acetylators) is given as 17%; in series [3] (slow acetylators), 46%.
For `Cn1c(=O)[nH]c2ncn(C)c2c1=O` [1,7-Dimethyl Xanthine (Paraxanthine), 1,7-Dimethyl Xanthine], in series [1], the “% Cross-Reaction AAMU-Ab” value is 0%. In addition, in series [2], the “% Cross-Reaction 1X-Ab” value worked out at 0.5%.
In the same order, the values of `CC(=O)Nc1c(N)n(C)c(=O)[nH]c1=O` [5-Acetamino-6-amino-1-methyluracil] are 100% and 0%.
For the compound `Cn1cnc2c1c(=O)[nH]c(=O)n2C` [3,7-Dimethyl Xanthine (Theobromine), 3,7-Dimethyl Xanthine], in series [1], the “% Cross-Reaction AAMU-Ab” value is listed as 0%. Also, in series [2], the “% Cross-Reaction 1X-Ab” value came to 0%.
`Cn1c(=O)[nH]c2nc[nH]c2c1=O` [1-Methyl Xanthine (1X), 1-Methyl Xanthine]: in series [1], the “% Cross-Reaction AAMU-Ab” value was determined as 0%. Also, in series [2], the “% Cross-Reaction 1X-Ab” value is on record as 100%.
In the same order, the values of `O=c1cc[nH]c(=O)[nH]1` [Uracil] are 0% and 0%.
